In test [1] the target is T1, thiol peroxidase HpTpx (Helicobacter pylori, UniProt O25151).
T1 sequence (O25151 2-166): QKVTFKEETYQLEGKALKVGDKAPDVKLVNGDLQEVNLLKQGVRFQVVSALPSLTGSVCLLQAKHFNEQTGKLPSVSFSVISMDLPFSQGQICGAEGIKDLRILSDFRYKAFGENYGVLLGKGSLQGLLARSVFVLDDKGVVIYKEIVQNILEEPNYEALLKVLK
Briefly: Gel-based in situ competitive labelling against Metro-P3 (ABPP). Type of test: cell-based. On the set-up: gene tpx; endogenous, H. pylori 26695 live cells.

Test [2] concerns the target T2, 60 kDa chaperonin HpGroEL (Helicobacter pylori, UniProt P42383). The description is as above. Type of test: cell-based. On the set-up: gene groEL; endogenous, H. pylori 26695 live cells.
Test [3] addresses T3, thiol peroxidase HpTpx (Helicobacter pylori, UniProt O25151, C94A).
T3 construct: gene tpx
Description: X-ray co-crystal structure, […] Å (reduced amine form Metro*). Format: binding.

In test [4] the target is T2, 60 kDa chaperonin HpGroEL. Briefly: Intact protein MS and malachite green ATPase assay of modified enzyme; EC50 is from in situ competition with Metro-P3 in H. pylori. Type of test: cell-based. The arrangement: gene groEL; recombinant HpGroEL, modified during anaerobic expression in E. coli.
Test [5] concerns the target T1, thiol peroxidase HpTpx. Description: Intact protein MS and peroxidase assay of modified enzyme; EC50 is from in situ competition with Metro-P3 in H. pylori. Type of test: cell-based. On the set-up: gene tpx; recombinant HpTpx wild type, modified during anaerobic expression in E. coli.
The target of test [6] is T1, thiol peroxidase HpTpx. Description: In situ ABPP labelling ([…]), gel and LC-MS/MS, competed by Metro. On the set-up: gene tpx; endogenous, H. pylori 26695 live cells. Format: cell-based.
The target of test [7] is T2, 60 kDa chaperonin HpGroEL. The test is described as above. On the set-up: gene groEL; endogenous, H. pylori 26695 live cells. Format: cell-based.

T2 sequence (P42383 whole entry): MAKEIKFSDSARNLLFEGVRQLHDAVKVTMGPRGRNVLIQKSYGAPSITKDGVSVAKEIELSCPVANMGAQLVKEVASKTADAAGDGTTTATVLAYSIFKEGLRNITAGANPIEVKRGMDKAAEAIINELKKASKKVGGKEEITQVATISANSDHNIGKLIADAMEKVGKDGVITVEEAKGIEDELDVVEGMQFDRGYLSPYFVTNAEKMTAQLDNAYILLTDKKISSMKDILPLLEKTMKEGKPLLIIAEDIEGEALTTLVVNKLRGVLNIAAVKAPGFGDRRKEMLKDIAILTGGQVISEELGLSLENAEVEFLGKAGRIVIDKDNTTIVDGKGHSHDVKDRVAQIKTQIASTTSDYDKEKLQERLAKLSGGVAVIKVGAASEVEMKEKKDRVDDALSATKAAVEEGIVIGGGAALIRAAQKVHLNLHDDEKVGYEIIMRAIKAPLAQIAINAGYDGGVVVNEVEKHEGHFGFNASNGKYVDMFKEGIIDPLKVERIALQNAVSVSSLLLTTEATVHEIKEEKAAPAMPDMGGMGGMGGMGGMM

By EC50 is commonly meant the concentration needed to bring the measured effect to its halfway point. `CCOCCn1c([N+](=O)[O-])cnc1C` [MF-03]: the EC50 was 17 µM in test [1] and 40 µM in test [2].

Consider `Cc1ncc([N+](=O)[O-])n1CCO` [Metro, Metronidazole], for which, in test [3], the “X-ray co-crystal structure, 1.75 Å (reduced amine form Metro*)” value was “forms an irreversible thioether bond with the CP residue”. The results for the EC50 in test [4] and in test [5] were 24 µM and 250 µM, respectively.

As to `C#CCOCCn1c([N+](=O)[O-])cnc1C` [Metro-P1], the “In situ ABPP labelling (1 μM), gel and LC-MS/MS, competed by Metro” value is 18-kDa HpTpx band was solely diminished in case of ether derivatives Metro-P1 and Metro-P3 upon Metro pre-incubation in test [6]; “a 60-kDa band decreased for all three probes” in test [7].
